{"source": "patent US20250261660A1", "about": "“FORMULATIONS AND METHODS FOR USE IN OXIDATION TREATMENT APPLICATIONS” (priority 2022, published 2025)", "data": [{"system": "microbial control in water", "assay": "Microbial control in water at slightly alkaline pH, comparison of oxidants", "assay_type": "cell-based", "source_text": "(§1) In some embodiments, microbial control in water at slightly alkaline pH was compared between peracetate oxidant, chlorine bleach, peracetic acid and chlorine dioxide. Alkaline pH is encountered in a variety of applications where microbial control and sanitization is needed, including pulp and paper processing.\nas §1, with “water treatment” for “pulp”, “chill tanks in poultry processing, a type of food” for “paper”", "values": [{"smiles": "OCl", "note": "[chlorine bleach, hypochlorite]", "performance as antimicrobial disinfectant": "lowest performance"}, {"smiles": "[O][Cl+][O-]", "note": "[chlorine dioxide]", "performance as antimicrobial disinfectant": "performed well"}, {"smiles": "CC(=O)OO", "note": "[peracetic acid]", "performance as antimicrobial disinfectant": "lowest performance"}]}]}
